Consider 3 compounds from article PMC11852925 (2025).

Assay in all cases: fluorescence titration, multiwavelength global analysis
For assay [1], the system named is c-myc22 (DNA, G4) GAGGGTGGGGAGGGTGGGGAAG
To be noted: 100 mM KCl, 10 mM K-phosphate pH 7.0, 295 K, 1:1 complex.

The subject of assay [2] is hTel45 (DNA, G4) GGGTTAGGGTTAGGGTTAGGGTTAGGGTTAGGGTTAGGGTTAGGG
To be noted: 100 mM KCl, 10 mM K-phosphate pH 7.0, 295 K.

Assay [3] concerns hTel22 (DNA, G4) AGGGTTAGGGTTAGGGTTAGGG
To be noted: 100 mM KCl, 10 mM K-phosphate pH 7.0, 295 K, 1:1 complex.

The test system of assay [4] is ds26 (DNA, duplex) CAATCGGATCGAATTCGATCCGATTG
To be noted: 100 mM KCl, 10 mM K-phosphate pH 7.0, 295 K.

Structures are written as SMILES.

Regarding `CCCNC(=O)c1ccc2[nH]c3c([nH]c2c1)c1c(=O)n(CCCN(C)C)c(=O)c2ccc4c(=O)n(CCCN(C)C)c(=O)c3c4c21`, the logK was 6.89 ± 0.05 in assay [1] (dimerization (logK 6.6) included, cumulative 1:2 14.74); 14.41 ± 0.05 in assay [2] (cumulative constant of 1:2 (DNA:ligand) complex, 1:4 28.6, dimerization included); 7.64 ± 0.16 in assay [3] (ligand dimerization (logK 6.6) included, cumulative 1:2 logK 14.04); 7.6 in assay [4] (per site of 1:2 complex, cumulative 1:2 15.25, 1:4 29.15).
As for `CN(C)CCCN1C(=O)c2ccc3c4c(c(NCCCCCCCNC(=O)c5ccc6[nH]c7c([nH]c6c5)c5c(=O)n(CCCN(C)C)c(=O)c6ccc8c(=O)n(CCCN(C)C)c(=O)c7c8c65)cc(c24)C1=O)C(=O)N(CCCN(C)C)C3=O`, the logK in assay [1] (cumulative 1:2 13.78) was 6.16 ± 0.02; in assay [2] (1:1 complex, cumulative 1:2 12.94, 1:4 25.52, 2:1 13.24), 7.91 ± 0.07; in assay [3] (cumulative 1:2 15.71, 2:1 (DNA:dyad) 14.14), 8.93 ± 0.07; in assay [4] (1:1 complex, cumulative 1:2 12.95, 1:3 18.35) it was 6.50 ± 0.03.
With `CN(C)CCCN1C(=O)c2ccc3c4c(c(NCc5cn(CCCNC(=O)c6ccc7[nH]c8c([nH]c7c6)c6c(=O)n(CCCN(C)C)c(=O)c7ccc9c(=O)n(CCCN(C)C)c(=O)c8c9c76)nn5)cc(c24)C1=O)C(=O)N(CCCN(C)C)C3=O`, the logK in assay [1] (cumulative 1:2 14.36, 2:1 11.69) is given as 7.77 ± 0.12; in assay [2] (cumulative constant of 1:2 (DNA:dyad) complex, 1:4 26.88, 2:1 11.55), 13.80 ± 0.05; in assay [3] (cumulative 1:2 14.68, 1:3 20.37) it was 7.67 ± 0.05; in assay [4] (1:1 complex, cumulative 1:2 12.48, 1:3 17.70), 5.82 ± 0.02.
